The nature of assay [1]: Inhibition of BRAF V600E mutant in human A375 cells assessed as reduction in cell proliferation incubated for 96 hrs by MTT assay. For orientation: Formazan colour is commonly taken as a measure of viable cells.
Assay [2] is described as follows: Inhibition of BCR-ABL (unknown origin) expressed in mouse BA/F3 cells assessed as reduction in cell proliferation incubated for 48 hrs by MTT assay.

One may read the IC50 as the concentration that gives 50% inhibition. Regarding `CC(C)n1nc(C#Cc2cccc3cc(-c4cccc(C(F)(F)F)c4)ncc23)c2c(N)ncnc21`, the IC50 in assay [1] was above 10000 nM; in assay [2], 942 nM.

As for `CCn1nc(C#Cc2cccc3cc(-c4cccc(C(F)(F)F)c4)ncc23)c2c(N)ncnc21`, the values for the IC50 in assay [1] and in assay [2] were above 10000 nM and 1110 nM, respectively.

For `CC(C)n1nc(C#Cc2cccc3cc(-c4ccc(CN5CCN(C)CC5)cc4)ncc23)c2c(N)ncnc21`, the 50% inhibitory concentration (IC50) in assay [1] is above 10000 nM; in assay [2], 354 nM.

Regarding `Cc1ccc2cc(-c3cccc(C(F)(F)F)c3)ncc2c1C#Cc1nn(C(C)C)c2ncnc(N)c12`, the IC50 came to 2300 nM in assay [1] and 435 nM in assay [2].

In the case of `CC(C)n1nc(C#Cc2cccc(NC(=O)c3cccc(C(F)(F)F)c3)c2)c2c(N)ncnc21`, in assay [1], the IC50 came to 97 nM.

The values are drawn from BindingDB's records for doi:10.1016/j.ejmech.2018.01.053 (University of Southern California, 2018).
